Values joined by “and” are separate entries in the source; they are usually repeats but may differ in a detail not shown here. Equal values may be shown once. Marks after values point to notes of the source that are not given here.
Columns and labels:
[1] = Heparin oral/intracolonic delivery, clotting time by activated partial thromboplastin time (APTT); type: in vivo, Sprague-Dawley rats; conditions: rats, baseline about 20 seconds
Method: Oral gavage (PO) and/or intracolonic (IC) dosing solutions containing a delivery agent compound and heparin sodium USP were prepared in 25% aqueous propylene glycol. […] This dry mixture was dissolved in 25% v/v aqueous propylene glycol, vortexed, and placed in a sonicator (about 37° C.). The pH was adjusted to about 7 (6.5 to 8.5) with aqueous NaOH (2N). The dosing solution was sonicated to produce a clear solution. The final volume was adjusted to about 3.0 ml.
(§1) The typical dosing and sampling protocols were as follows. […] The dosing solution was expressed slowly into the colon by pressing the syringe plunger.
Citrated blood samples were collected by cardiac puncture following the administration of ketamine (88 mg/kg), typically at 0.25, 0.5, 1.0 and 1.5 hours after dosing. Heparin absorption was verified by an increase in clotting time measured by the activated partial thromboplastin time (APTT) according to the method of Henry, J. B., Clinical Diagnosis and Management by Laboratory Methods, Philadelphia, Pa., W.B. Saunders (1979). Previous studies indicated baseline values of about 20 seconds.

[2] = Low molecular weight heparin (LMWH) oral/intracolonic delivery, plasma LMWH by anti-Factor Xa assay; type: in vivo, Sprague-Dawley rats; conditions: IC, rats, delivery agent compound 50 mg/kg, LMWH 750 IU/kg, 1 ml/kg
Method: Oral dosing (PO) and/or intracolonic (IC) compositions containing a delivery agent compound and low molecular weight heparin (LMWH) were prepared in 25% aqueous propylene glycol. […] Typically, the delivery agent compound and LMWH (Parnaparin, 91 IU/mg average molecular weight about 5,000, available from Opocrin, Modena, Italy) (typically 90-105 IU/mg, average molecular weight about 5,000) were mixed by vortex as dry powders. This dry mixture was dissolved in 25% v/v aqueous propylene glycol, vortexed, and placed in a sonicator (37° C.) to produce a clear solution. The pH was adjusted to about 7 (6.5-8.5) with 2N aqueous NaOH. The dosing solution was sonicated to produce a clear solution. The final volume was adjusted to 3.0 ml.
as §1
Citrated blood samples were collected by cardiac puncture following the administration of ketamine (88 mg/kg), typically at 0.5, 1.0, 2.0, 3.0 and 4.0 hours after dosing. LMWH absorption was verified by an increase in plasma LMWH measured by the anti-Factor Xa assay CHROMOSTRATE™ Heparin anti-Xa assay (available from Organon Teknika Corporation, Durham, N.C.). […] The peak of these mean plasma LMWH concentrations is reported below in Table 5.

[3] = Salmon calcitonin (sCT) oral delivery, serum sCT by EIA; conditions: rats, delivery agent compound dose 150 mg/kg, sCT dose 30 μg/kg
[4] = Daptomycin oral delivery, plasma daptomycin by HPLC; type: in vivo, Sprague-Dawley rats; conditions: rats, delivery agent compound dose 200 mg/kg, daptomycin dose 50 mg/kg, volume dose 1 mL/kg
Method: Dosing solutions containing a delivery agent compound and daptomycin (Cubist Pharmaceuticals, Cambridge, Mass.) were prepared in 0.9% normal saline. […] This mixture was vortexed and placed in a sonicator (about 37° C.). The pH was adjusted to about 7.0-7.5 with aqueous HCl or NaOH. […] The mixture was vortexed to produce a uniform solution, also using sonication if necessary. The delivery agent compound solution was mixed with daptomycin from a stock solution (200 mg daptomycin/mL in 0.9% normal saline and the pH adjusted, if necessary, to between 6.0-7.0 with NaOH or HCl). The stock solution was stored frozen (−20° C.) wrapped in foil, then thawed and warmed gradually to about 25° C. before using. The delivery agent-daptomycin mixture was vortexed at low speed to produce a uniform solution. The pH was adjusted to about 7.0-7.5 with aqueous NaOH. The solution was then diluted with 0.9% normal saline to the desired volume (usually 2.0 ml) and concentration and stored wrapped in foil before use.
(§2) The typical dosing and sampling protocols were as follows.
Heparinized rat blood samples were collected via the ventral tail artery, typically at 0.25, 0.5, 0.75, 1.0, 2.0, and 4.0 hours after dosing, and stored on ice. Blood samples were then spun (centrifuged) at 11,500 rpm for 4 minutes at 4° C. to obtain the plasma (supernatant), which was stored at −70° C. The plasma daptomycin concentrations were measured by isocratic reversed phase HPLC, keeping samples at 4° C. during analysis. Blank plasma studies show baseline values of zero.
Daptomycin blood concentrations results from the individual animals in each dosage group were averaged for each time point.

[5] = Cromolyn oral delivery, serum cromolyn by HPLC; type: in vivo, Sprague-Dawley rats; conditions: rats, delivery agent compound dose 200 mg/kg, cromolyn dose 25 mg/kg, in µg/mL (unit assumed)
Method: Dosing solutions containing a delivery agent compound (prepared as in Example 1) and cromolyn, disodium salt (cromolyn)(from Sigma Chemical Co., St. Louis, Mo.) were prepared in deionized water. […] This mixture was vortexed and placed in a sonicator (about 37° C.). The pH was adjusted to about 7-7.5 with aqueous NaOH. […] The mixture was vortexed to produce a uniform solution, also using sonication and heat if necessary. The delivery agent compound solution was mixed with cromolyn from a stock solution (175 mg cromolyn/ml in deionized water, pH adjusted, if necessary, with NaOH or HCl to about 7.0, stock solution stored frozen wrapped in foil, then thawed and heated to about 30° C. before using). The mixture was vortexed to produce a uniform solution, also using sonication and heat if necessary. The pH was adjusted to about 7-8 with aqueous NaOH. The solution was then diluted with water to the desired volume (usually 2.0 ml) and concentration and stored wrapped in foil before use.
as §2
Blood samples were collected via the tail artery, typically at 0.25, 0.5, 1.0 and 1.5 hours after dosing. Serum cromolyn concentrations were measured by HPLC. Samples were prepared as follows: 100 μl serum was combined with 100 μl 3N HCl and 300 μl ethyl acetate in an eppendorf tube. The tube was vortexed for 10 minutes and then centrifuged for 10 minutes at 10,000 rpm. 200 μl ethyl acetate layer was transferred to an eppendorf tube containing 67 μl 0.1 M phosphate buffer. The tube was vortexed for 10 minutes and then centrifuged for 10 minutes at 10,000 rpm. […] Previous studies indicated baseline values of about zero.

[6] = Interferon oral delivery, serum IFN by immunoassay; type: in vivo, Sprague-Dawley rats; conditions: rats, 1 ml/kg
Method: Dosing solutions of delivery agent compound and human interferon (IFN) were prepared in deionized water. […] This mixture was vortexed and placed in a sonicator (about 37° C.). The pH was adjusted to about 7.0 to 8.5 with aqueous NaOH. The mixture was vortexed to produce a uniform suspension or solution, also using sonication and heat if necessary.
as §2
Serum IFN concentrations were quantified using Cytoscreen Immunoassay Kit for human IFN-alpha (catalog # KHC4012 from Biosource International, Camarillo, Calif.). Previous studies indicated baseline values of about zero.

[7] = Recombinant human growth hormone (rhGH) oral delivery, serum rhGH by immunoassay; conditions: oral gavage, rats, delivery agent compound 200 mg/kg, rhGH 3 mg/kg
Method: Oral gavage (PO) dosing solutions of delivery agent compound and rhGH in phosphate buffer were prepared by mixing. A solution of the delivery agent compound was made either with the sodium salt of the delivery agent compound or by converting the free acid to its sodium salt.
The typical dosing and sampling protocols were as follows. Male Sprague-Dawley rats weighing 200-250 g were fasted for 24 hours and administered ketamine (44 mg/kg) and chlorpromazine (1.5 mg/kg) 15 minutes prior to dosing and again as needed to maintain anesthesia. A dosing group of five animals was administered one of the dosing solutions. An 11 cm Rusch 8 French catheter was adapted to a 1 ml syringe with a pipette tip. The syringe was filled with dosing solution by drawing the solution through the catheter, which was then wiped dry. The catheter was placed down the esophagus leaving 1 cm of tubing past the incisors. The dosing solution was administered by pressing the syringe plunger.
Blood samples were collected serially from the tail artery typically at time=15, 30, 45, 60 and 90 minutes. The five samples from each time period were pooled (except for those samples for which standard deviation (SD) and standard error (SE) are reported). Serum rHGH concentrations were quantified by an rHGH immunoassay test kit (Kit # K1F4015 from Genzyme Corporation Inc., Cambridge, Mass.).

[8] = Insulin oral delivery, serum human insulin by ELISA; conditions: rats
Method: Oral dosing (PO) compositions of delivery agent compound and human zinc insulin (minimum 26 IU/mg available from Calbiochem—Novabiochem Corp, La Jolla, Calif.) were prepared in deionized water. […] The pH was adjusted to about 7 to 8.5 with NaOH or HCl. […] The final delivery agent compound dose, insulin dose and dose volume amounts are listed below in Table 8.
as §2
Serum insulin levels were determined with an Insulin ELISA Test Kit (Kit # DSL-10-1600 from Diagnostic Systems Laboratories, Inc., Webster, Tex.), modifying the standard protocol in order to optimize the sensitivity and linear range of the standard curve for the volumes and concentrations of the samples used in the present protocol. […] The five values for each time point were averaged and the results plotted as serum insulin concentration versus time.

[9] = Parathyroid hormone (PTH 1-34) oral/intracolonic delivery, serum PTH by radioimmunoassay; conditions: rats, oral (PO); delivery agent compound dose 100 mg/kg, PTH dose 200 μg/kg, volume dose 1 ml/kg
Method: Oral gavage (PO) and/or intracolonic (IC) dosing solutions of delivery agent compound and human parathyroid hormone residues 1-34 (PTH) in deionized water were prepared. A solution of the compound was made either with the sodium salt of the delivery agent compound or by converting the free acid to its sodium salt.
The typical dosing and sampling protocols were as follows. Male Sprague-Dawley rats weighing between 200-250 g were fasted for 24 hours and administered ketamine (44 mg/kg) and chlorpromazine (1.5 mg/kg) 15 minutes prior to dosing and again as needed to maintain anesthesia. A dosing group of five animals was administered one of the dosing solutions. For oral gavage (PO), an 11 cm Rusch 8 French catheter was adapted to a 1 ml syringe with a pipette tip. The syringe was filled with dosing solution by drawing the solution through the catheter, which was then wiped dry. The catheter was placed down the esophagus leaving 1 cm of tubing past the incisors. The dosing solution was administered by pressing the syringe plunger. For intracolonic (IC) dosing, a 7.5 cm Rusch catheter tube (French 8 or 6) was adapted to a syringe with an Eppendorf pipette tip. The syringe was filled with the dosing solution by drawing the solution through the catheter tube. The catheter tube was wiped dry. K-Y jelly was applied to the tip, avoiding contact with the eye of the tube, and the tube was inserted into the colon through the anus until the tube was no longer visible. The dosing solution was injected by pressing the syringe plunger, and the tube was removed.
Previous studies indicated baseline values of about zero. Results from the animals in each group were averaged for each time point.

[10] = Insulin pulmonary delivery, serum insulin by ELISA, ratio to insulin-alone control; type: in vivo, Sprague-Dawley rats; conditions: pulmonary, rats; volume 0.4 ml/kg, delivery agent compound 0.03 mg/kg, insulin 0.3 mg/kg (so in the source)
Method: Dosing compositions of delivery agent compound and human insulin in water were prepared. Typically, to 1.5 mg of delivery agent compound was added deionized water to bring the volume to 1.0 ml, and the solution was vortexed. […] The pH was adjusted to between about 7.0 to 8.5 with NaOH or HCl. […] The final delivery agent compound dose, insulin dose and volume dose amounts are listed below in Table 9.
The typical dosing and sampling protocols were as follows. […] A control group of five animals was dosed insulin alone. A tracheal instillator for rodents, equipped with light (available from Penn Century, Inc., Pittsburgh, Pa.) was filled with dosing solution and inserted down the throat until the needle went into the trachea (confirmed visually). The dosing solution was administered by pressing the plunger.
Blood samples from each animal were collected serially from the tail artery, typically at 5, 15, 30, 60 and 120 minutes after dosing. […] The ratio of the area under the curve (AUC) for the test group versus that of the control group is reported below. The ratio of the maximum serum insulin concentration (Cmax) for the test group versus that of the control group is also reported below.

[11] = IC (intracolonic), delivery agent compound 50 mg/kg, heparin 25 mg/kg, volume dose 1 ml
[12] = delivery agent compound 200 mg/kg, IFN 1 mg/kg
[13] = delivery agent compound 100 mg/kg, insulin 3 mg/kg, 0.5 ml/kg

Row | Structure (SMILES) | Mean Peak APTT ± SD [1, 11] [s] | Mean plasma Cmax [daptomycin] ± SD [4] [ng/mL] | Mean Peak serum [cromolyn] ± SD (SE) ([5]; volume dose 1 ml/kg) | Mean Peak Serum sCT (pg/ml ± SD) (SE) ([3]; dose volume 1 (ml)) [pg/mL] | Mean Peak Serum [IFN] ± SD [6, 12] | Mean Peak Serum [PTH] (pg/mL) ± SD [9] [pg/mL] | other results
1 | O=C(O)c1ccc(COc2ccccc2O)cc1 [Compound 2] | 48.788 ± 32.79 | 5070 ± 610 |  |  |  |  | Mean Peak Plasma LMWH Concentration ± SD [2]: 1.038 ± 0.338 IU/ml; Mean Peak Serum sCT (pg/ml ± SD) (SE) ([3]; dose volume 1 (ml), 150 mg/kg): 628 ± 221 pg/mL and 449 ± 550 pg/mL and 320 ± 348 pg/mL
2 | O=C(O)CCCCCOc1ccccc1O [Compound 5] |  | 7082 ± 3860 | 0.63 ± 0.47 | 349 ± 348 |  |  | Mean Peak APTT ± SD ([1]; PO (oral gavage), delivery agent compound 300 mg/kg, heparin 100 mg/kg, volume dose 3 ml): 135.7 ± 17.3 s; Mean Peak Serum [IFN] ± SD ([6]; delivery agent compound 50 mg/kg, IFN 0.5 mg/kg): 1.54 ± 0.26 ng/mL and 2.1 ± 0.95 ng/mL
3 | CC(=O)c1ccccc1OCCCCCC(=O)O [Compound 11] | 39.53 ± 8.25 | 13270 ± 13430 |  | 526 ± 415 |  |  | Mean Peak Serum [rhGH] ([7]; volume dose 1 ml): 35.4 ng/mL; Mean Peak Plasma LMWH Concentration ± SD [2]: 0.91 ± 0.414 IU/ml
4 | O=C(O)CCCCCOc1ccccc1 [Compound 15] |  | 9500 ± 5490 | 0.38 ± 0.15 |  | 6.0324 ± 2.8 ng/mL |  | Mean Peak Serum [INS] ± SD ([8]; delivery agent compound 100 mg/kg, insulin 3 mg/kg, 1 ml/kg): 1332.2 ± 1906.4 μU/ml; Mean Peak Serum sCT (pg/ml ± SD) (SE) ([3]; dose volume 2 (ml)): 116 ± 88 pg/mL
5 | CNC(=O)c1ccccc1OCCCCCCCC(=O)O [Compound 31] | 47 ± 23.1 |  |  |  |  | 460 ± 194 | Mean Peak Serum [INS] ± SD [8, 13]: 21.26 ± 6.22 μU/ml; Mean Peak Plasma LMWH Concentration ± SD ([2]; 50 mg/kg): 0.47 ± 0.287 IU/ml and 0.47 ± 0.332 IU/ml
6 | CCNC(=O)c1ccccc1OCCCCCCCC(=O)O [Compound 33, 8-(2-(N-ethylbenzamide)oxy)octanoic acid] |  |  |  | 96 ± 209 |  | 837 ± 347 | Mean Peak Serum [INS] ± SD [8, 13]: 58.13 ± 52.86 μU/ml; Mean Peak Serum [rhGH] ([7]; volume dose 1 ml): 10.1 ng/mL and 6.9 ng/mL
7 | CC(C)NC(=O)c1ccccc1OCCCCCCCC(=O)O [Compound 34] |  |  |  |  |  | 538 ± 328 | Mean Peak Serum sCT (pg/ml ± SD) (SE) ([3]; dose volume 1 (ml), 150 mg/kg): 103 ± 72 pg/mL and 137 ± 178 pg/mL
8 | O=C(O)CCCCCCCOc1cccc(O)c1 [Compound 43] |  |  |  | 50 ± 71 | 1 ± 2.1 ng/mL and 1.206 ng/mL |  | Mean Ratio of AUC for insulin + compound versus AUC for insulin alone [10]: 1.44; AUC (Total AUC(0→∞)) of daptomycin [4]: 4555* μg-min/mL and 2895* μg-min/mL and 2820* μg-min/mL
9 | O=C(O)CCCCCCCOc1ccc(O)cc1 [Compound 47, (4-hydroxyphenyl)-8-oxyoctanoic acid] | 370.3 ± 97.8 |  | 0.56 ± 0.39 | 62 ± 99 | 1.1 ± 0.85 ng/mL |  | Mean Peak Serum [rhGH] ([7]; volume dose 2 ml): 9.9 ± 22.1 ng/mL; Mean Peak serum [cromolyn] ± SD (SE) ([5]; volume dose 2 ml/kg): 0.55 ± 0.12; Mean Ratio of AUC for insulin + compound versus AUC for insulin alone [10]: 0.63
10 | O=Cc1ccccc1OCCCCCCCC(=O)O [Compound 61] |  |  | 0.54 ± 0.39 and 0.57 ± 0.36 |  |  |  | Mean Peak Serum [INS] ± SD ([8]; delivery agent compound 200 mg/kg, insulin 0.5 mg/kg, 1 ml/kg): 58.99 ± 27.15 μU/ml; Mean Peak serum [cromolyn] ± SD (SE) ([5]; volume dose 2 ml/kg): 0.39 ± 0.21

— US8410309B2, “Phenoxy carboxylic acid compounds and compositions for delivering active agents” (Emisphere Technologies, Inc., priority 1999, dated 2013)
